Legend:
[1] = biological target: T1, hQ23 (HEK-293 cell line stably transfected with one of the members of the KCNQ family) (Homo sapiens, UniProt O43525+O43526); assay: Thallium flux assay for KCNQ channel blockers (FLIPR, BTC dye); format: cell-based; details: hQ23 cells
T1 construct: expressed in transfected cells; host or cells: HEK-293, stably transfected
How it was run: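 HEK-293 cells stably expressing a KCNQ member, loaded with BTC-AM (2 μM) in chloride-free buffer, pH 7.3; compounds added at 1% DMSO, then Tl2SO4 stimulus on FLIPR (488/540 nm, 60 s). Minimal active concentration set at ≥4 SD above negative control; IC50 from 10-point 1:3 series, single-site logistic fit versus the positive-control blocker.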

mKCNQ2 = mKCNQ2 (Mus musculus, UniProt Q9Z351); assay: KCNQ patch-clamp: two-electrode voltage clamp on Xenopus laevis oocytes injected with mKCNQ2 cRNA; format: cell-based; details: for Percent TEA blockage: percent inhibition relative to 5 mM TEA blockade at a membrane voltage of −40 mV, mKCNQ2 in oocytes
mKCNQ2, sequence (Q9Z351 whole entry): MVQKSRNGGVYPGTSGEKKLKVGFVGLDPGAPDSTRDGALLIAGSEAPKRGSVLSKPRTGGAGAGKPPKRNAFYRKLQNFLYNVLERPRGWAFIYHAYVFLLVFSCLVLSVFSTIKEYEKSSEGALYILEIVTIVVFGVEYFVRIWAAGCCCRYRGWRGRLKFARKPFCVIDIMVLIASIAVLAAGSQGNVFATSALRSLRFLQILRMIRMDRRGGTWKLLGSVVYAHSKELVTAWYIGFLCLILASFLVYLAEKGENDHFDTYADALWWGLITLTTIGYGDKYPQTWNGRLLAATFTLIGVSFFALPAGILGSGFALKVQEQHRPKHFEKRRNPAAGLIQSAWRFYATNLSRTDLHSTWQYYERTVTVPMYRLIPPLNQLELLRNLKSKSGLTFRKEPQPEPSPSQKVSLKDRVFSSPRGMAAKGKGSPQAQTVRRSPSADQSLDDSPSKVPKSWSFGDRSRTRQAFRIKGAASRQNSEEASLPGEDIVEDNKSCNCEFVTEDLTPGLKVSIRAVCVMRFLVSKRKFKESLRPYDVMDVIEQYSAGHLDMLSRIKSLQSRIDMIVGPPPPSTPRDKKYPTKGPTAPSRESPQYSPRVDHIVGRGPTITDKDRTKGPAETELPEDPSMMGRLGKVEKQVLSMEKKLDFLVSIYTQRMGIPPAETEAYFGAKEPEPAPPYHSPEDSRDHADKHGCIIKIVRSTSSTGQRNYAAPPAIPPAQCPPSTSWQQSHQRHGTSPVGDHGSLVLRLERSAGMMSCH
Procedure: KCNQ Patch-clamp. Frog oocytes were surgically harvested from mature Xenopus laevis that had been anesthetized with 0.15% 3-aminobenzoic acid ethyl ester (tricaine). Only late stage V and VI oocytes were selected for cRNA injection, and the overlying follicle cell layers were enzymatically removed. Each oocyte was injected with approximately 60 ng of the mKCNQ2 cRNA. Following injection, oocytes were maintained at 17° C. in ND96 medium consisting of (in mM): NaCl, 90; KCl, 1.0; CaCl2, 1.0; MgCl2, 1.0; HEPES, 5.0; (pH 7.5) and supplemented with heat-inactivated horse serum (5%) and penicillin/streptomycin (5%).
Two-electrode voltage clamp techniques were used to record membrane currents; recording commenced 3–7 days following cRNA injection (Gribkoff, V. K., et al., Mol. Pharmacol. 1996, 50(1), 206–217). For recording and compound application, oocytes were placed in a recording chamber and incubated in Modified Barth's Solution (MBS) consisting of (in mM): NaCl, 88; NaHCO3, 2.4; KCI, 1.0; HEPES, 10; MgSO4, 0.82; Ca(NO3)2, 0.33; CaCl2, 0.41; (pH 7.5). Voltage-clamp protocols consisted of a series of 4 second duration depolarizing voltage steps from a holding potential of −90 mV to a maximal potential of +40 mV in 10 mV intervals. A family of outward currents was generated under control conditions for comparison with currents elicited in the presence of an experimental compound. Control or drug solutions were continually introduced into the recording chamber using a gravity-flow system with an in-line electronic valve array. A minimum of 5 oocytes was used for each drug concentration; drug concentrations ranged from 0.001 μM to 10 μM. During a single experiment, an oocyte was exposed to as many as three drug concentrations sequentially administered for 5 minutes each. All experiments ended with a 5 minute application of TEA (5 mM), a non-selective, but effective blocker of KCNQ channels. Typically, 5 mM TEA produced a maximal blockade of outward current when measured at the −40 mV membrane voltage (94.6+/−0.5% inhibition, n=112). In this manner, all drug effects could be presented as a percentage of TEA blockade, controlling for the variable levels of channel expression from oocyte to oocyte. Table 1 discloses data for representative examples. Data are expressed as percent inhibition relative to TEA blockade at a membrane voltage of −40 mV: A>50% TEA blockage at 100 nM, B>50% TEA blockage at 1 μM, C<50% TEA blockage at 1.0 μM.

T1 sequence (O43526 whole entry): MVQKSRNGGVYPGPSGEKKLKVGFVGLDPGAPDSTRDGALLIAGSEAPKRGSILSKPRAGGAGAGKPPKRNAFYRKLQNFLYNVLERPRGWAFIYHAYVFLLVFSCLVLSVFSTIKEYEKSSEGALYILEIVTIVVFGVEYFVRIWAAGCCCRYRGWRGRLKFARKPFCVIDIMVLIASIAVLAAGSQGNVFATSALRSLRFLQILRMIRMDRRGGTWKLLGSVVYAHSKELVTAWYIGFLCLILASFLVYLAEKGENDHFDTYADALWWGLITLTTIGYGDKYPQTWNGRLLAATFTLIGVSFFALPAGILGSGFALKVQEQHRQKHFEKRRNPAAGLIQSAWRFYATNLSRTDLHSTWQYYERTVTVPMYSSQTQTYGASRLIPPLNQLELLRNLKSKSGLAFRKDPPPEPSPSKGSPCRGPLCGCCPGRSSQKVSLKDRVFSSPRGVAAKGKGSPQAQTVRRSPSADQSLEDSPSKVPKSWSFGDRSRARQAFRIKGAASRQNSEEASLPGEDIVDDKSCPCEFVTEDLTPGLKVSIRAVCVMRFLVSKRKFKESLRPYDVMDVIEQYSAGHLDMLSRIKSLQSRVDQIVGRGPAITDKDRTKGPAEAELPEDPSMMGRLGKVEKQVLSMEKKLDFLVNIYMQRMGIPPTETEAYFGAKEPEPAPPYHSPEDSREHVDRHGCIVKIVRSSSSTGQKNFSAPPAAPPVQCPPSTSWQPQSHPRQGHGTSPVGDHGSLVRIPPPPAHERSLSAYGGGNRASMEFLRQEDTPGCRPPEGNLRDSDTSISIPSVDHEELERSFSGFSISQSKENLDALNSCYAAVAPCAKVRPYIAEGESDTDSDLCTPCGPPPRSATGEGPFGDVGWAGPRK
T1 sequence (O43525 whole entry): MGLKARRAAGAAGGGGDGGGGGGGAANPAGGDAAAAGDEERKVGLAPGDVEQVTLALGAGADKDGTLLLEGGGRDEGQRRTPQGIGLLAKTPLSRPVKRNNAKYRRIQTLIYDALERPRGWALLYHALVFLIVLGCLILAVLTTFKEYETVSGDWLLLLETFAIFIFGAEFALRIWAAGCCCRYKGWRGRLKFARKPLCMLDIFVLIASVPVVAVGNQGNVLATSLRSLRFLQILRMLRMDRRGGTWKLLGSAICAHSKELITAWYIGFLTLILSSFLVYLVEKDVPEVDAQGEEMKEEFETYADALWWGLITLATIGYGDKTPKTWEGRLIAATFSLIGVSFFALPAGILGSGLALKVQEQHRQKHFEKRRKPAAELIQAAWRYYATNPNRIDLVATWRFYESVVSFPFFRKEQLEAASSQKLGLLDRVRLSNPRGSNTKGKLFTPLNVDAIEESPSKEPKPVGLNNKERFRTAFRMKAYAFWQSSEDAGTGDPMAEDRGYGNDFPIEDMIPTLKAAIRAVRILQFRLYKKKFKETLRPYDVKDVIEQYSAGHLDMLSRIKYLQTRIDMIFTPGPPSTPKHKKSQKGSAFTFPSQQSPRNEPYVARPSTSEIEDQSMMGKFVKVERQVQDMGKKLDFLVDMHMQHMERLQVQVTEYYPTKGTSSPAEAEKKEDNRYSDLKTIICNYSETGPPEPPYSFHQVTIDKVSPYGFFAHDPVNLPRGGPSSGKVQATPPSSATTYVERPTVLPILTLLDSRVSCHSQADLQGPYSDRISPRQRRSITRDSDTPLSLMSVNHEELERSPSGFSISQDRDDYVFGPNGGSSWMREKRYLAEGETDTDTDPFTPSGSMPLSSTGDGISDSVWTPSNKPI

| Compound | EC50 ([1]; thallium flux) | Percent TEA blockage (mKCNQ2) | EC50 ([1]; thallium flux assay) | maximal blockade of outward current (% inhibition) (mKCNQ2; 5 mM TEA, measured at −40 mV membrane voltage, n=112) |
| --- | --- | --- | --- | --- |
| CC1CCN(c2ncc(C(=O)NCc3ccc(C(F)(F)F)cc3)c(C3(c4ccccc4)CCCC3)n2)CC1 [Example 138, 5-pyrimidinecarboxamide, 2-(4-methyl-1-piperidinyl)-4-(1-phenylcyclopentyl)-N-[[4-(trifluoromethyl)phenyl]methyl]-] | 10 nM | B (B > 50% TEA blockage at 1 μM) | – | – |
| CC1CCN(c2ncc(C(=O)NCc3ccc(Cl)cc3Cl)c(C3(c4ccc(Cl)cc4)CCCC3)n2)CC1 [Example 181, 5-pyrimidinecarboxamide, 4-[1-(4-chlorophenyl)cyclopentyl]-N-[(2,4-dichlorophenyl)methyl]-2-(4-methyl-1-piperidinyl)-] | 10 nM | A (A > 50% TEA blockage at 100 nM) | – | – |
| CC[N+](CC)(CC)CC [TEA, reference compound] | – | – | – | 94.6+/−0.5% |

The next lines start with results.

| EC50 ([1]; thallium flux) | Percent TEA blockage (mKCNQ2) | EC50 ([1]; thallium flux assay) | Compound | maximal blockade of outward current (% inhibition) (mKCNQ2; 5 mM TEA, measured at −40 mV membrane voltage, n=112) |
| --- | --- | --- | --- | --- |
| – | A (A > 50% TEA blockage at 100 nM) | 17 nM | CC1CCN(c2ncc(C(=O)NCc3ccc(Cl)cc3Cl)c(C3(c4ccc(F)cc4)CCCC3)n2)CC1 [Example 263, 5-pyrimidinecarboxamide, N-[(2,4-dichlorophenyl)methyl]-4-[1-(4-fluorophenyl)cyclopentyl]-2-(4-methyl-1-piperidinyl)-] | – |
| – | B (B > 50% TEA blockage at 1 μM) | – | O=C(NCc1ccc2c(c1)OCO2)c1cnc(N2CCCC2)nc1C1(c2ccccc2)CCCCC1 [Example 299, N-(1,3-benzodioxol-5-ylmethyl)-4-[1-phenylcyclohexyl]-2-(1-pyrrolidinyl)-5-pyrimidinecarboxamide] | – |
